Source: PMC7203576 (Frontiers in Microbiology, 2020)
Values joined by “and” are separate entries in the source; they are usually repeats but may differ in a detail not shown here. Identical values can stand only once. Like-named read-outs stand apart in the source and are kept apart here. Marks after values point to notes of the source that are not given here. Residues, ends and D or L forms follow the SMILES beside them. *: point of attachment. Tridecanoyl(3R-OH,11-Me) = CCC(C)CCCCCCC[C@@H](O)CC(=O)*

Assays:
[1] = test system: Magnaporthe oryzae Triticum (MoT) isolate BTJP 4 (5)
[2] = test system: Magnaporthe oryzae Triticum (MoT) on detached wheat leaves cv. BARI Gom 24 (Prodip); settings: in vivo
[3] = test system: Magnaporthe oryzae Triticum (MoT) conidia; settings: 50 μg/ml

In the case of Macrolactin B [reference compound], the “Activity against MoT” value [1] is reported as “Active”.
With `COc1ccc2c(c[n+](C)c3c4cc5c(cc4ccc23)OCO5)c1OC` [Chelerythrine chloride, reference compound] the “Activity against MoT” value [1] was “Active”.
Neomycin [reference compound] was tested, and the “Activity against MoT” value [1] was “Active”.
In the case of `C[C@H]1CCC/C=C\C=C\[C@H](O)C[C@@H](O)C/C=C\C=C\[C@@H](OC(=O)CCC(=O)O[C@H]2O[C@@H](CO)[C@H](O)[C@@H](O)[C@@H]2O)C/C=C/C=C\C(=O)O1` [Macrolactin W, reference compound], the “Activity against MoT” value [1] is reported as “Inactive”.
In the case of `CC(=O)c1c(O)cc(O)c(C(C)=O)c1O` [2,4-Diacetylphloroglucinol (DAPG), 2,4-Diacetylphloroglucinol, reference compound], the “Activity against MoT” value [1] is reported as “Inactive”.
With Gageopeptide C the “Average lesion length of wheat blast on detached leaves” value (“Average lesion length of wheat blast” below) [2] was 1.8 ± 0.1 mm, the “Activity against MoT” value [1] was “Active” and the “Minimum inhibitory concentration (MIC) on mycelial growth” value (from here on “Minimum inhibitory concentration (MIC)”) [1] was 2.5 μg/disk. The “Morphology of treated hyphae (microscopy)” value (“Morphology of treated hyphae” for short) [1] was “extensive branching, irregular growth, and swelling in MoT hyphae”, the “Mycelial growth inhibition at the MIC” value [1] was 42.9 ± 1.6% and the “Percent inhibition of radial growth (PIRG) of mycelia” value (shortened to “Percent inhibition of radial growth”) [1] was 58.1 ± 0.9% and 54.3 ± 1.6% and 49.5 ± 0.9%. For the same compound, the “Germinated conidia (% ± SE)” value ([3]; 0 h) was 0 ± 0^f %, the “Major morphological change/developmental transitions in the treated conidia” value ([3]; 0 h) was “No germination” and the “Major morphological change/developmental transitions in the treated conidia” value ([3]; 6 h) was “Germinated with a short germ tube”. The “Major morphological change/developmental transitions in the treated conidia” value ([3]; 12 h) was “Deformed germ tube (swollen)”, the “Major morphological change/developmental transitions in the treated conidia” value ([3]; 24 h) was 30% Normal appressoria and 11% abnormal appressoria (low melanization) formed but no mycelial growth took place and the “Conidia with abnormally swollen (deformed) germ tubes” value (shortened to “Conidia with abnormally swollen”) ([3]; after 12 h) was 10 ± 1.5%. The “Conidia producing abnormal appressoria (low melanization)” value ([3]; after 24 h) was 11 ± 0.7% and 11% and the “Conidia producing normal appressoria” value ([3]; after 24 h) was 30 ± 0.7% and 30%.
`Oc1cc(O)cc(O)c1` [Phloroglucinol (PG), Phloroglucinol, reference compound] was tested, and the “Activity against MoT” value [1] was “Inactive”.
In the case of `COC1=CC(=O)C(O)=C(CCCCCCC/C=C\CCCCCCCC2=C(O)C(=O)C=C(OC)C2=O)C1=O` [Ardisiaquinone A, reference compound], the “Activity against MoT” value [1] is reported as “Inactive”.
With `CCCCCCCC/C=C\CCCCCCCc1cc(O)cc(O)c1` [5-(8Z-Heptadecenyl) resorcinol, reference compound] the “Activity against MoT” value [1] was “Inactive”.
In the case of `CC[C@H]1/C=C/C=C/C[C@@H](C)[C@H](O)[C@@](C)(O)C(=O)[C@@H](C)[C@H](O)[C@@H](C)C(=O)[C@@H](C)[C@H](O)[C@@H](C)/C=C/C(=O)O[C@@H]2[C@H](C)[C@H](CC1)O[C@@]1(O[C@@H](C[C@@H](C)O)[C@@H](C)CC1=O)[C@H]2C` [Oligomycin B, reference compound], the “Activity against MoT” value [1] is reported as “Active”.
Gageotetrin A [reference compound] was tested, and the “Activity against MoT” value [1] was “Inactive”.
With Gageotetrin C [reference compound] the “Activity against MoT” value [1] was “Inactive”.
With Gageopeptide D the “Average lesion length of wheat blast” value [2] was 1.8 ± 0.1 mm, the “Activity against MoT” value [1] was “Active” and the “Minimum inhibitory concentration (MIC)” value [1] was 2.5 μg/disk. For the same compound, the “Morphology of treated hyphae” value [1] was “disruption of normal polar growth of hyphae by inducing excessive branching and swelling of hyphal tips”, the “Mycelial growth inhibition at the MIC” value [1] was 20 ± 1.7% and the “Percent inhibition of radial growth” value [1] was 45.7 ± 1.6% and 30.5 ± 0.9% and 27.6 ± 0.9%. The “Germinated conidia (% ± SE)” value ([3]; 0 h) was 0 ± 0^f %, the “Major morphological change/developmental transitions in the treated conidia” value ([3]; 0 h) was “No germination” and the “Major morphological change/developmental transitions in the treated conidia” value ([3]; 6 h) was “Germinated with a short germ tube”. For the same compound, the “Major morphological change/developmental transitions in the treated conidia” value ([3]; 12 h) was “Deformed germ tube (swollen)”, the “Major morphological change/developmental transitions in the treated conidia” value ([3]; 24 h) was “No appressoria formed; no mycelial growth took place” and the “Conidia with abnormally swollen” value ([3]; after 12 h) was 25 ± 1.7%.
With `CC[C@@H](O)C[C@@H]1CC[C@@H](O)[C@@H](C)C(=O)O[C@@H](C)C[C@H]2CC[C@H](O2)[C@H](C)C(=O)O1` [Feigrisolide C, reference compound] the “Activity against MoT” value [1] was “Active”.
`CC(=O)c1c(O)cc(O)cc1O` [Monoacetylphloroglucinol (MAPG), Monoacetylphloroglucinol, reference compound] was tested, and the “Activity against MoT” value [1] was “Inactive”.
With Gageostatin C [reference compound] the “Activity against MoT” value [1] was “Inactive”.
With `C[C@@H]1CCC/C=C/C=C/[C@H](O)C[C@@H](O)C/C=C\C=C\[C@@H](O)C/C=C/C=C\C(=O)O1` [Macrolactin A, reference compound] the “Activity against MoT” value [1] was “Inactive”.
In the case of Gageostatin A [reference compound], the “Activity against MoT” value [1] is reported as “Inactive”.
For `CN[C@@H]1C[C@H]2O[C@@](C)([C@@H]1OC)n1c3ccccc3c3c4c(c5c6ccccc6n2c5c31)C(=O)NC4` [Staurosporine, reference compound], the “Activity against MoT” value [1] was “Active”.
`CC(=O)c1c(O)c(C(C)=O)c(O)c(C(C)=O)c1O` [2,4,6-Triacetylphloroglucinol (TAPG 3), 2,4,6-Triacetylphloroglucinol, reference compound] was tested, and the “Activity against MoT” value [1] was “Inactive”.
For `CCCCCC[C@H]1C(=O)O[C@H](C)[C@H](NC(=O)c2cccc(NC=O)c2O)C(=O)O[C@@H](C)[C@@H]1OC(=O)CC(C)C` [Antimycin-A, reference compound], the “Activity against MoT” value [1] was “Active”.
For `CCC(C)CCCCCCC[C@@H](O)CC(=O)N[C@@H](CC(C)C)C(=O)N[C@@H](CCC(=O)O)C(=O)N[C@@H](CC(C)C)C(=O)N[C@@H](CC(C)C)C(=O)O` (stereo partly drawn) [Gageopeptide A] ({Tridecanoyl(3R-OH,11-Me)}-LELL-OH), the “Average lesion length of wheat blast” value [2] was 1.5 ± 0.2 mm, the “Activity against MoT” value [1] was “Active” and the “Minimum inhibitory concentration (MIC)” value [1] was 10.0 μg/disk and 10 μg/disk. For the same compound, the “Morphology of treated hyphae” value [1] was “remarkable increase in branch frequency per unit length of hyphae, reduced polar growth, and irregular swelling of the hyphal tips”, the “Mycelial growth inhibition at the MIC” value [1] was 12.5 ± 1.8% and the “Percent inhibition of radial growth” value [1] was 50.5 ± 0.9%. For the same compound, the “Germinated conidia (% ± SE)” value ([3]; 0 h) was 0 ± 0^f %, the “Major morphological change/developmental transitions in the treated conidia” value ([3]; 0 h) was “No germination” and the “Major morphological change/developmental transitions in the treated conidia” value ([3]; 6 h) was “Germinated with a short germ tube”. The “Major morphological change/developmental transitions in the treated conidia” value ([3]; 12 h) was “Normal germ tube”, the “Major morphological change/developmental transitions in the treated conidia” value ([3]; 24 h) was “Normal appressoria formed; no mycelial growth took place” and the “Conidia with normal germ tube” value ([3]; after 12 h) was 31 ± 1.7%. The “Conidia producing normal appressoria” value ([3]; after 24 h) was 27 ± 1.5% and the “Inhibition of mycelial growth from germinated conidia” value ([3]; 24 h) was 100%.
`CCCc1c(O)cc(O)c(CCC)c1O` [2,4-Dipropylphloroglucinol (DPPG), 2,4-Dipropylphloroglucinol, reference compound] was tested, and the “Activity against MoT” value [1] was “Inactive”.
For Gageotetrin B, the “Average lesion length of wheat blast” value [2] was 1.5 ± 0.1 mm, the “Activity against MoT” value [1] was “Active” and the “Minimum inhibitory concentration (MIC)” value [1] was 1.5 μg/disk. For the same compound, the “Morphology of treated hyphae” value [1] was “coarse, loss of radial growth, and irregular swelling on the tips”, the “Mycelial growth inhibition at the MIC” value [1] was 22.9 ± 1.6% and the “Percent inhibition of radial growth” value [1] was 60.9 ± 2.5% and 59 ± 0.9% and 51.4 ± 1.7%. The “Germinated conidia (% ± SE)” value ([3]; 0 h) was 0 ± 0^f %, the “Major morphological change/developmental transitions in the treated conidia” value ([3]; 0 h) was “No germination” and the “Major morphological change/developmental transitions in the treated conidia” value ([3]; 6 h) was “Germinated with a short germ tube”. The “Major morphological change/developmental transitions in the treated conidia” value ([3]; 12 h) was “Deformed germ tube (swollen)”, the “Major morphological change/developmental transitions in the treated conidia” value ([3]; 24 h) was “Abnormal appressoria formed; no mycelial growth took place” and the “Conidia with abnormally swollen” value ([3]; after 12 h) was 41 ± 3.8%.
`CCC(O)CC1CCC(C(C)C(=O)OC(C)CC2CCC(C(C)C(=O)O)O2)O1` (stereo not drawn) [Bonactin, reference compound] was tested, and the “Activity against MoT” value [1] was “Active”.
In the case of `CC1(C)S[C@@H]2[C@H](NC(=O)Cc3ccccc3)C(=O)N2[C@H]1C(=O)O` [Penicillin G, reference compound], the “Activity against MoT” value [1] is reported as “Inactive”.
In the case of `C[C@@H]1C/C=C/C=C/C=C/C=C/[C@H](O[C@@H]2O[C@H](C)[C@@H](O)[C@H](N)[C@@H]2O)C[C@@H]2O[C@](O)(C[C@@H](O)C[C@H]3O[C@@H]3/C=C/C(=O)O1)C[C@H](O)[C@H]2C(=O)O` [Natamycin, reference compound], the “Activity against MoT” value [1] is reported as “Inactive”.
For Gageopeptide B, the “Average lesion length of wheat blast” value [2] was 1.6 ± 0.2 mm, the “Activity against MoT” value [1] was “Active” and the “Minimum inhibitory concentration (MIC)” value [1] was 10.0 μg/disk and 10 μg/disk. The “Morphology of treated hyphae” value [1] was “swelling of hyphal cells, hyper-branching, loss of apical growth, and swelling of hyphal tips”, the “Mycelial growth inhibition at the MIC” value [1] was 11.5 ± 1.6% and the “Percent inhibition of radial growth” value [1] was 54.3 ± 3.3%. For the same compound, the “Germinated conidia (% ± SE)” value ([3]; 0 h) was 0 ± 0^f %, the “Major morphological change/developmental transitions in the treated conidia” value ([3]; 0 h) was “No germination” and the “Major morphological change/developmental transitions in the treated conidia” value ([3]; 6 h) was “Germinated with a short germ tube”. The “Major morphological change/developmental transitions in the treated conidia” value ([3]; 12 h) was “Deformed germ tube (swollen)”, the “Major morphological change/developmental transitions in the treated conidia” value ([3]; 24 h) was “No appressoria formed; no mycelial growth took place” and the “Conidia with abnormally swollen” value ([3]; after 12 h) was 51 ± 2.1%.
With Oligomycin F [reference compound] the “Activity against MoT” value [1] was “Active”.
For Gageostatin B [reference compound], the “Activity against MoT” value [1] was “Inactive”.
`CCCCCCCC/C=C\CCCCCCCc1cc(O)c(C)c(O)c1` [2-Methyl-5-(8Z-heptadecenyl) resorcinol, reference compound] was tested, and the “Activity against MoT” value [1] was “Inactive”.
